Experimental findings from patent publication US12588689B2, “Feed additive composition containing erythritol” (EASY BIO, INC, priority 2020, dated 2026) are described below.

For this assay, the system named is broiler chickens (Ross 308). Put plainly: Broiler chicken specification test, composition containing erythritol (noise and high temperature stress). Format: in vivo. From the text: To investigate the influence of composition containing erythritol on high temperature stress reduction in summer season, 1,280 broiler chickens (Ross 308; male and female chickens) with average weight of 44.0 g and 1 day old were divided into eight treatment groups with 10 repetitions, and then, 16 chickens were arbitrarily located in total 80 fences, thereby performing breeding tests. The mixing rates represent weight ratios, and additives by treatment group are post-formulated in a farm. The erythritol (99%) used in the formulation was purchased at Vision Pharmalab Co., Ltd., and the beta-glucan was used with Biolife (ENT Co., Ltd., 40 to 50% beta-glucan content) used in the fourth embodiment of the present invention. • Control group (CON): Formulated feed • E: Formulated feed+0.02% erythritol • B: Formulated feed+0.02% beta-glucan • L: Formulated feed+0.02% lipidol • E+B: Formulated feed+0.02% erythritol+0.02% beta-glucan • E+L: Formulated feed+0.02% erythritol+0.02% lipidol • B+L: Formulated feed+0.02% beta-glucan+0.02% lipidol • E+B+L: Formulated feed+0.02% erythritol+0.02% beta-glucan+0.02% lipidol
The feed and water were sufficiently supplied and freely fed. So as to cause stress, 80 to 100 dB noise was produced two times per a day for ten minutes, and to cause high temperature stress, Temperature-Humidity Index (THI) as shown in FIG. 4 was kept.
The weights and feed intake were measured on week 1, week 3, and week 5 to calculate weight gain per day, feed intake per day, and feed conversion ratios (FCR), and the calculated results are listed in Table 6, together with mortality rates.

Marks after values point to notes of the source that are not given here.

Take `OC[C@@H](O)[C@@H](O)CO` [E, erythritol]: where the note is “Step 1 (1~7 days of age)”, the Feed conversion ratio turned out to be 1.36, the Feed intake is reported as 19.4 g/day, the Mortality rate is 0.0% and the Weight gain is given as 14.3 g/day. Moreover, for the setting “Step 1 (1~7 days of age), 0.02% of each additive in formulated feed”, the Weight came to 144.0 g. Moreover, where the note is “Step 2 (8~21 days of age)”, the Feed conversion ratio is 1.74^a, the Feed intake was 69.3 g/day, the Mortality rate came out at 1.3% and the Weight is 705.4^e g. The Weight gain (Step 2 (8~21 days of age)) was 40.1^d g/day. Further, where the note is “Step 3 (22~35 days of age)”, the Feed conversion ratio was 1.88, the Feed intake is reported as 236.9 g/day, the Mortality rate was found to be 3.8% and the Weight is on record as 1592.3^e g. The Weight gain (Step 3 (22~35 days of age)) is reported as 126.7^c g/day. Further, where the note is “Total (1~35 days of age)”, the Feed conversion ratio is 1.79^a, the Feed intake is 98.6^bc g/day, the Survival rate was determined as 95.0% and the Weight gain is reported as 55.3^e g/day. The “weight gain, feed intake and feed conversion ratios compared with the control group” value (entire breeding period, result in words) was “no significant difference”.
